Reference: patent US20240189279A1, “IMMUNOMODULATORY COMPOSITIONS AND METHODS OF USE THEREOF” (THE TEXAS A&M UNIVERSITY SYSTEM, priority 2022, published 2024)

Legend:
liver bile acids = assay: Liver bile acid analysis (targeted LC-MS) in WD mice; type: in vivo, mice (male B6 129SF1/J)
Excerpt: Animal experiments. Male B6 129SF1/J mice at 6 weeks of age were obtained from Jackson Laboratories (Bar Harbor, ME). Mice were acclimatized to the animal facility for one week. At the start of the experiment, mice were randomly divided into four groups (n=10 for each group). Three of the four groups were fed ad libitum a Western diet (WD) with 40% Kcal from fat and containing 0.15% cholesterol (D12079B, Research Diets) and a sugar water (SW) solution (23.1 g/L d-fructose+18.9 g/L d-glucose) as previously described (DIAMOND model (15)). After 8 weeks, the three groups of WD-fed mice were randomly selected for treatment with vehicle (WD group) or low (WD-50 group) or high dose (WD-100 group) of […]. The WD group was fed WD and drank sugar water. The WD-50 and WD-100 groups were fed WD and drank sugar water containing, respectively, 50 or 100 mg […] per kg body weight. The treatments were continued for another 8 weeks. Water bottles containing SW and […] or only SW were changed every other day. A fourth group of mice was fed a low-fat control diet (D12450B, Research Diets) and normal water for 16 weeks (CN group) (FIG. 9A). FIG. 9A presents the study design. […] The supernatant was transferred into a new sample tube and analyzed by LC-MS. […] The calculated bile acid concentrations were normalized to the level of spiked internal standard for each sample.

[1] = test system: Western diet (WD) fed mice; assay: Western diet mouse model of diet-induced fatty liver disease: serum ALT, liver TG, histology, body weight; type: in vivo, mice (male B6 129SF1/J)
Protocol: Study design. The overall objective of the study was to investigate if […] can alleviate diet induced liver steatosis and inflammation in vivo. These NAFLD features were induced in mice by feeding the animals a WD and SW for 8 weeks. The drinking water for these mice was then supplemented with low and high doses of […], while continuing the WD for another 8 weeks. The phenotypic changes were assessed by measuring body weight gain, serum ALT, hepatic inflammatory cytokines, and histopathological examination of liver tissue. To investigate potential mechanisms of action, a series of omics analyses were performed on fecal material (metagenomics and metabolomics) and liver tissue (metabolomics and proteomics). To determine cell-type specific signaling mediating […] effects in macrophages, an in vitro cell culture model was used. The histopathological scoring of liver sections was blinded; all other analyses were not blinded. Sample processing and statistical analysis were performed concurrently on treatment and control groups using identical methods. Animal experiments. Male B6 129SF1/J mice at 6 weeks of age were obtained from Jackson Laboratories (Bar Harbor, ME). Mice were acclimatized to the animal facility for one week. At the start of the experiment, mice were randomly divided into four groups (n=10 for each group). Three of the four groups were fed ad libitum a Western diet (WD) with 40% Kcal from fat and containing 0.15% cholesterol (D12079B, Research Diets) and a sugar water (SW) solution (23.1 g/L d-fructose+18.9 g/L d-glucose) as previously described (DIAMOND model (15)). After 8 weeks, the three groups of WD-fed mice were randomly selected for treatment with vehicle (WD group) or low (WD-50 group) or high dose (WD-100 group) of […]. The WD group was fed WD and drank sugar water. The WD-50 and WD-100 groups were fed WD and drank sugar water containing, respectively, 50 or 100 mg […] per kg body weight. The treatments were continued for another 8 weeks. Water bottles containing SW and […] or only SW were changed every other day. A fourth group of mice was fed a low-fat control diet (D12450B, Research Diets) and normal water for 16 weeks (CN group) (FIG. 9A). FIG. 9A presents the study design. Mice belonging to the same treatment group were housed together (5 mice/cage). Mice were maintained on 12:12-h light-dark cycles. All procedures were performed in accordance with Texas A&M University Health Sciences Center Institutional Animal Care and Use Committee guidelines under an approved animal use protocol (AUP #2017-0145). Sample collection. Fecal pellets were collected every other week prior to […] treatment, right before […] treatment, every week during […] treatment, and on the last day of the experiments (FIG. 9B). FIG. 9B presents the sampling scheme. All fecal pellets were flash frozen in liquid nitrogen after collection. Blood samples from the submandibular vein were taken right prior to […] treatment, every other week during […] treatment and on the last day of the experiments. The blood samples were centrifuged at 4,000 g for 15 min at 4° C. to obtain serum. At the end of the experiment, the mice were sacrificed by euthanasia. The liver was quickly excised and rinsed with 10× volume of ice-cold PBS. The right medium lobe of the liver was fixed in 10% neutral formalin for histological analysis. A small piece from right lateral lobe was stored in RNAlater (Sigma Aldrich, St. Louis, MO) using the manufacturer's protocol. The remaining liver tissue samples were flash frozen in liquid nitrogen, homogenized in HPLC-grade water, lyophilized to a dry powder, and stored at -80° C. until further processing. Histological analysis. Formalin fixed liver were embedded in paraffin, sectioned (5 μm) and stained with hematoxylin and eosin (H&E) through VWR histological services (Radnor, PA). Liver histology sections were evaluated by an expert pathologist at Texas A&M University who was blinded to the treatment conditions. […]

[2] = test system: palmitate and LPS stimulated macrophages; assay: Cytokine production in palmitate and LPS stimulated macrophages; type: cell-based
[3] = test system: endotoxin-treated murine bone marrow derived macrophages; assay: Cytokine expression in endotoxin-treated bone marrow derived macrophages; type: cell-based
[4] = week 16, dose-dependent, WD-50 and WD-100 vs WD

For `O=C([O-])Cc1c[nH]c2ccccc12.[Na+]` [I3A, Indole-3-acetate sodium salt], the “liver bile acid profile” value (liver bile acids; WD-50 group vs WD) was “did not show any significant changes in liver bile acid profile”, the “liver total bile acids and primary bile acids” value (liver bile acids; WD-100 group vs WD (WD: reduced total, increased primary bile acids)) was “showed the opposite trend” and the “protection against steatosis and immune cell infiltration in livers” value ([1]; I3A up to 100 mg/kg body wt. in drinking water, 16 weeks WD, B6/129 mice) was “dose-dependently protected against these injuries”. For the same compound, the “serum alanine aminotransferase (ALT) levels” value ([1]; high dose I3A (WD-100, 100 mg/kg in drinking water) vs WD, week 10 and beyond) was “significantly reduced serum ALT levels”, the body weight increase ([1]; normalized to week 8 body weight, I3A treated vs WD) was “slowed the weight increase” and the “liver TG” value ([1]; week 16, WD-50 and WD-100 vs WD) was “reduced liver TG in a dose-dependent manner”. The “hepatocyte ballooning (H&E histology score)” value [1, 4] was “improved”, the “liver steatosis (H&E histology score)” value [1, 4] was “improved” and the “lobular inflammation (H&E histology score)” value [1, 4] was “improved”. The “production of TNF-α, IL-1β, and MCP-1” value [2] was “dose-dependently attenuated the production of TNF-α, IL-1β, and MCP-1” and the “expression of IL-1, TNF-α, and MCP-1” value [3] was “dose-dependently downregulate the expression of IL-1, TNF-α, and MCP-1”.
